Results published in paper PMC11589570, “Critical assessment of LC3/GABARAP ligands used for degrader development and ligandability of LC3/GABARAP binding pockets” (Nature Communications, 2024).
Like-named read-outs stand apart in the source and are kept apart here.

Molecular target: GABARAPL2 (Homo sapiens, UniProt P60520)
Conditions: for CSP: GABARAPL2:ligand molar ratio 1:2; for 3D Mapping code: molar ratio 1:2

Chain of GABARAPL2 (P60520 whole entry): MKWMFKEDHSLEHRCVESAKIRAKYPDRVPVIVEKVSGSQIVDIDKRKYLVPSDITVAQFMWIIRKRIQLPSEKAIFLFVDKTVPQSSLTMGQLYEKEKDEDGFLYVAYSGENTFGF

SMILES: O=C1Nc2ccc(I)cc2C1=Cc1cc(Br)c(O)c(Br)c1 [compound 4]
- CSP (residue E73): 0.00458 ppm
- CSP (residue E96): 0.019 ppm
- CSP (residue E98): 0.025 ppm
- CSP (residue E101): 0.007 ppm
- CSP (residue E112): 0.00563 ppm
- CSP (residue F60): 0.00542 ppm
- CSP (residue F77): 0.006 ppm
- CSP (residue F79): 0.007 ppm
- CSP (residue F104): 0.059 ppm
- 3D Mapping code (residue F104): Orange
- CSP (residue F115): 0.012 ppm
- CSP (residue G38): 0.040 ppm
- 3D Mapping code (residue G38): Light green
- CSP (residue G103): 0.019 ppm
- CSP (residue G111): 0.010 ppm
- CSP (residue G116): 0.007 ppm
- CSP (residue H9): 0.008 ppm
- CSP (residue H13): 0.031 ppm
- 3D Mapping code (residue H13): Light green
- CSP (residue I21): 0.054 ppm
- 3D Mapping code (residue I21): Orange
- CSP (residue I32): 0.057 ppm
- 3D Mapping code (residue I32): Blue
- CSP (residue I41): 0.00428 ppm
- CSP (residue I44): 0.029 ppm
- 3D Mapping code (residue I44): Light green
- CSP (residue I55): 0.026 ppm
- 3D Mapping code (residue I55): Light green
- CSP (residue I63): 0.014 ppm
- CSP (residue I64): 0.021 ppm
- CSP (residue I68): 0.021 ppm
- CSP (residue I76): 0.004 ppm
- CSP (residue K2): 0.017 ppm
- CSP (residue K6): 0.023 ppm
- CSP (residue K20): 0.058 ppm
- 3D Mapping code (residue K20): Orange
- CSP (residue K24): 0.015 ppm
- CSP (residue K35): 0.014 ppm
- CSP (residue K46, estimated): 0.050 ppm
- 3D Mapping code (residue K46): Blue
- CSP (residue K48): 0.168 ppm
- 3D Mapping code (residue K48): Blue
- CSP (residue K66): 0.020 ppm
- CSP (residue K74): 0.011 ppm
- CSP (residue K97): 0.012 ppm
- CSP (residue K99): 0.018 ppm
- CSP (residue L11): 0.016 ppm
- CSP (residue L50): 0.096 ppm
- 3D Mapping code (residue L50): Blue
- CSP (residue L70): 0.006 ppm
- CSP (residue L78): 0.006 ppm
- CSP (residue L105): 0.060 ppm
- 3D Mapping code (residue L105): Orange
- CSP (residue M1): 0.010 ppm
- CSP (residue M61): 0.015 ppm
- CSP (residue N113): 0.00264 ppm
- CSP (residue P26, estimated): 0.050 ppm
- 3D Mapping code (residue P26): Light green
- CSP (residue P30, estimated): 0.110 ppm
- 3D Mapping code (residue P30): Blue
- CSP (residue P52, estimated): 0.070 ppm
- 3D Mapping code (residue P52): Blue
- CSP (residue P71, estimated): 0.010 ppm
- CSP (residue Q40): 0.017 ppm
- CSP (residue Q59): 0.016 ppm
- CSP (residue Q69): 0.020 ppm
- CSP (residue R14): 0.091 ppm
- 3D Mapping code (residue R14): Orange
- CSP (residue R22): 0.083 ppm
- 3D Mapping code (residue R22): Orange
- CSP (residue R28): 0.064 ppm
- 3D Mapping code (residue R28): Orange
- CSP (residue R47, estimated): 0.100 ppm
- 3D Mapping code (residue R47): Blue
- CSP (residue R65): 0.008 ppm
- CSP (residue R67): 0.00158 ppm
- CSP (residue S10): 0.019 ppm
- CSP (residue S18): 0.021 ppm
- CSP (residue S37): 0.030 ppm
- 3D Mapping code (residue S37): Light green
- CSP (residue S39): 0.017 ppm
- CSP (residue S53): 0.076 ppm
- 3D Mapping code (residue S53): Orange
- CSP (residue S72): 0.004 ppm
- CSP (residue S110): 0.010 ppm
- CSP (residue T56): 0.008 ppm
- CSP (residue T114): 0.00144 ppm
- CSP (residue V16): 0.051 ppm
- 3D Mapping code (residue V16): Light green
- CSP (residue V29): 0.102 ppm
- 3D Mapping code (residue V29): Blue
- CSP (residue V31): 0.128 ppm
- 3D Mapping code (residue V31): Blue
- CSP (residue V33): 0.064 ppm
- 3D Mapping code (residue V33): Orange
- CSP (residue V36): 0.024 ppm
- CSP (residue V42): 0.00232 ppm
- CSP (residue V51): 0.077 ppm
- 3D Mapping code (residue V51): Blue
- CSP (residue V57): 0.024 ppm
- CSP (residue V80): 0.028 ppm
- 3D Mapping code (residue V80): Light green
- CSP (residue V107): 0.039 ppm
- 3D Mapping code (residue V107): Light green
- CSP (residue W3): 0.022 ppm
- CSP (residue W62): 0.016 ppm
- CSP (residue Y25): 0.085 ppm
- 3D Mapping code (residue Y25): Orange
- CSP (residue Y49): 0.148 ppm
- 3D Mapping code (residue Y49): Blue
- CSP (residue Y106): 0.097 ppm
- 3D Mapping code (residue Y106): Orange
- CSP (residue Y109): 0.012 ppm
